From patent publication US20160016907A1, “PYRIDINE DERIVATIVES AS MUSCARINIC M1 RECEPTOR POSITIVE ALLOSTERIC MODULATORS” (PFIZER INC., priority 2014, published 2016)

target: T1, human M1 muscarinic acetylcholine receptors (Homo sapiens, UniProt P11229); assay: M1 FLIPR assay (PAM, intracellular calcium); type: cell-based; details: potentiation of EC10-EC30 acetylcholine, values marked a: geometric mean of ≧7 determinations, read-out: M1 PAM Inflection Point (μM) Geometric mean of 2-6 determinations (unless otherwise indicated)
T1 sequence (P11229 1-460): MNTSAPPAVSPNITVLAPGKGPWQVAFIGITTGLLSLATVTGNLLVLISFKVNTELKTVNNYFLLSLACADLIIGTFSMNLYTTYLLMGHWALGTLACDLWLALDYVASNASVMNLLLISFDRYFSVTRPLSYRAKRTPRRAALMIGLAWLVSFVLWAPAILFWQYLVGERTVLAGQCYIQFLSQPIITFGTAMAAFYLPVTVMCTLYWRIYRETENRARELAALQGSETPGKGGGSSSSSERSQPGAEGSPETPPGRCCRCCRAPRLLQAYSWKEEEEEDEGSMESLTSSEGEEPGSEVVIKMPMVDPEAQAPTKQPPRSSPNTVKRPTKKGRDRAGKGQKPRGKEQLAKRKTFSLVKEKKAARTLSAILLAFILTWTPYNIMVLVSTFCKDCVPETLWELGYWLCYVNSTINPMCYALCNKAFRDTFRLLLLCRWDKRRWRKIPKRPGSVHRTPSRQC
Procedure: This assay was designed to select and characterize compounds that affect the activity of human M1 muscarinic acetylcholine receptors (Similar M1 PAM FLIPR assays can be found, for example, at U.S. Pat. No. 8,664,234). Human M1 receptors were stably expressed in Chinese hamster ovary (CHO) cells (HD Bioscience). The effect of test compounds on intracellular calcium was measured on an FLIPR Tetra (Molecular Devices) using the Fluo-8, AM calcium dye (Molecular Probes) with a red dye quenching agent (Sigma).
CHO cells expressing hM1 cells had been previously cultured and frozen in assay ready vials. Cell vials were thawed, then plated at a density of 10,000 cells per well in a 384 well black wall, clear bottom plate (Greiner #781090) and incubated overnight at 37 degrees C. with 5% CO2. Cells were grown and plated in F12 nutrient media (Gibco BRL #21700-075) supplemented with 10% FBS (Hyclone #CH30160.03) and Pen/Strep (Gibco #15070-063).
After overnight incubation, cell plates were removed from the incubator and the growth media was discarded and replaced with loading solution containing the following: 2 μM Fluo-8-AM (Molecular Probes #F14242), 2 mM Probenecid (Sigma #P8761), lx Acid Red 1 (Sigma #210633), in HBSS buffer containing (grams/L): 0.1 CaCl2, 0.1 MgCl2*6H2O, 0.049 MgSO4, 0.4 KCl, 0.06 KH2PO4, 8.06 NaCl, 0.12 Na2HPO4*12H2O, 1.1 D-glucose*H2O, 0.35 NaHCO3, 4.766 HEPES, pH 7.4. The plate was incubated in the loading solution at 37 degrees C. in the dark for 1 hour.
Test compounds were initially prepared as 100% DMSO stock solutions, then transferred and serially diluted in 384-well compound plates (Greiner #784201). Each compound was tested at 10 concentrations in duplicate per experiment. Positive and negative controls for positive allosteric modulator evaluation were 30 μM acetylcholine (Ach) and an EC10-EC30 concentration of acetylcholine, approximately 2 nM but could be adjusted for each experiment to maintain the EC10-EC30 range.
After the 1-hour dye loading incubation, test compounds were added to the cell plate containing Fluo-8. Approximately 10 minutes after compound addition, an EC10-EC30 concentration of acetylcholine was added to each well and the fluorescence measured to determine the PAM potentiation of the compound.
Data was exported from the FLIPR Tetra as maximum fluorescence/minimum fluorescence for each well. The percent effect for each compound well was determined using the mean values for the positive and negative controls on each plate for each read. Percent effect was 100*(compound negative control)/(positive control negative control). Dose response curves were fitted to the compound percent effect data using a 4-parameter logistic fit model to determine PAM (positive allosteric modulator) Inflection Point values. Compounds with inverted U dose response curves had the concentrations greater than the concentration giving the peak response excluded from the fit. Data was reported as Inflection Point. The compounds of Examples 1-72 had activity according to this assay, generally with an Inflection Point (IP) of 10 μM or less (using Inflection Point as a measure of activity). Such a result is indicative of the intrinsic activity of the compounds of the invention as M1 allosteric modulators.

Compound | EC50 [µM]
O=C(N[C@H]1CCOC[C@@H]1O)c1cc(Cc2ccc(-n3cccn3)cc2)c(C(F)F)cn1 [Example 54, 5-(difluoromethyl)-N-[(3R,4S)-3-hydroxytetrahydro-2H-pyran-4-yl]-4-[4-(1H-pyrazol-1-yl)benzyl]pyridine-2-carboxamide] | 0.198
Cc1cnc(C(=O)N[C@H]2CCOC[C@@H]2O)cc1[C@@H](F)c1ccc(-n2cccn2)cc1 [Example 55, 4-{(S)-Fluoro[4-(1H-pyrazol-1-yl)phenyl]methyl}-N-[(3R,4S)-3-hydroxytetrahydro-2H-pyran-4-yl]-5-methylpyridine-2-carboxamide] | > 9.12
Cc1cnc(C(=O)N[C@H]2CCOC[C@@H]2O)cc1[C@H](F)c1ccc(-n2cccn2)cc1 [Example 56, 4-{(R)-Fluoro[4-(1H-pyrazol-1-yl)phenyl]methyl}-N-[(3R,4S)-3-hydroxytetrahydro-2H-pyran-4-yl]-5-methylpyridine-2-carboxamide] | 0.03
COc1cnc(C(=O)N[C@H]2CCOC[C@@H]2O)cc1Cc1ccc(-c2coc(C)n2)cc1 [Example 58, N-[(3R,4S)-3-Hydroxytetrahydro-2H-pyran-4-yl]-5-methoxy-4-[4-(2-methyl-1,3-oxazol-4-yl)benzyl]pyridine-2-carboxamide] | 0.086
O=C(N[C@H]1CCOC[C@@H]1O)c1cc(Cc2ccc(-n3cccn3)cc2)c(OC(F)F)cn1 [Example 62, 5-(difluoromethoxy)-N-[(3R,4S)-3-hydroxytetrahydro-2H-pyran-4-yl]-4-[4-(1H-pyrazol-1-yl)benzyl]pyridine-2-carboxamide] | 0.129
Cc1cnc(C(=O)N[C@H]2CCOC[C@@H]2O)cc1Cc1ccc(-c2cnn(C)c2)nc1 [Example 65, N-[(3R,4S)-3-hydroxytetrahydro-2H-pyran-4-yl]-5-methyl-4-{[6-(1-methyl-1H-pyrazol-4-yl)pyridin-3-yl]methyl}pyridine-2-carboxamide] | 0.18
COc1cnc(C(=O)N[C@H]2CCOC[C@@H]2O)cc1Cc1ccc(-c2cscn2)cc1 [Example 68, N-[(3R,4S)-3-hydroxytetrahydro-2H-pyran-4-yl]-5-methoxy-4-[4-(1,3-thiazol-4-yl)benzyl]pyridine-2-carboxamide] | 0.074
COc1cnc(C(=O)N[C@H]2CCCC[C@@H]2O)cc1Cc1ccc(-n2cccn2)cc1 [Example 70, N-[(1S,2S)-2-hydroxycyclohexyl]-5-methoxy-4-[4-(1H-pyrazol-1-yl)benzyl]pyridine-2-carboxamide] | 0.104
COc1cnc(C(=O)N[C@H]2CCCC[C@@H]2O)cc1Cc1ccc(-c2cocn2)cc1 [Example 71, N-[(1S,2S)-2-hydroxycyclohexyl]-5-methoxy-4-[4-(1,3-oxazol-4-yl)benzyl]pyridine-2-carboxamide] | 0.125
COc1cnc(C(=O)N[C@H]2CCCC[C@@H]2O)cc1Cc1ccc(-c2coc(C)n2)cc1 [Example 72, N-[(1S,2S)-2-hydroxycyclohexyl]-5-methoxy-4-[4-(2-methyl-1,3-oxazol-4-yl)benzyl]pyridine-2-carboxamide] | 0.142

Further lines, results first:

EC50 [µM] | Compound
0.144 | Cc1cnc(C(=O)N[C@H]2CCOC[C@@H]2O)cc1Cc1ccc(-c2cocn2)cc1 [Example 57, N-[(3R,4S)-3-Hydroxytetrahydro-2H-pyran-4-yl]-5-methyl-4-[4-(1,3-oxazol-4-yl)benzyl]pyridine-2-carboxamide]
0.116 | Cc1cnc(C(=O)N[C@H]2CCOC[C@@H]2O)cc1Cc1ccc(-c2cn(C)nc2C)cc1 [Example 61, 4-[4-(1,3-Dimethyl-1H-pyrazol-4-yl)benzyl]-N-[(3R,4S)-3-hydroxytetrahydro-2H-pyran-4-yl]-5-methylpyridine-2-carboxamide]
0.114 | Cc1cnc(C(=O)N[C@H]2CCOC[C@@H]2O)cc1Cc1ccc(-c2cn[nH]c2)cc1 [Example 66, N-[(3R,4S)-3-hydroxytetrahydro-2H-pyran-4-yl]-5-methyl-4-[4-(1H-pyrazol-4-yl)benzyl]pyridine-2-carboxamide]
0.052 | Cc1cnc(C(=O)N[C@H]2CCOC[C@@H]2O)cc1Cc1ccc(-c2cnn(C)c2)cc1 [Example 67, N-[(3R,4S)-3-hydroxytetrahydro-2H-pyran-4-yl]-5-methyl-4-[4-(1-methyl-1H-pyrazol-4-yl)benzyl]pyridine-2-carboxamide]
0.048 | Cc1nc(-c2ccc(Cc3cc(C(=O)N[C@H]4CCOC[C@@H]4O)ncc3C)cc2)cs1 [Example 69, N-[(3R,4S)-3-hydroxytetrahydro-2H-pyran-4-yl]-5-methyl-4-[4-(2-methyl-1,3-thiazol-4-yl)benzyl]pyridine-2-carboxamide]
